Data taken from US20090061022A1, “Pharmaceutical composition comprising arsenite for the treatment of malignancy” (priority 2004, published 2009).
Several values for one entry are separate records, joined by “and”; a condition that tells them apart may be missing. Identical values can stand only once.

Tests used:
[1] = tested on: panel of forty-one (41) human cancer cell lines; assay: Cytotoxic activity, panel of forty-one (41) human cancer cell lines
Excerpt: In a next study, the cytotoxic activity of sodium meta-arsenite was head-to-head compared with arsenic trioxide in panels loaded with 41 cancer cell lines from ten human cancers.

[2] = tested on: panel of 12 human cancer cell lines; assay: Cytotoxic activity, whole panel of 12 human cancer cell lines, modified propidium iodide assay; settings: for times more potent than arsenic acid sodium salt: panel of 12
Procedure: Nine kinds of human cancer cell lines out of six kinds of cancers were grown at 37° C. under a controlled atmosphere of 95% air and 5% CO2. The cells were grown on monolayer cultures of RPMI 1640 cell culture medium supplemented with 10% fetal calf serum.
The grown cells were harvested from exponential phase cultures by trypsinization and counted. The counted cells were placed in a plate, which has ninety six wells. Each well on the plate is in a shape of a flat-bottomed microtitre. Density of the cells in a suspension was adjusted depending on the cell line. The suspension was prepared by diluting the grown cells with the culture medium (RPMI 1640). Concentration of the cells were varied from 5×10^4 to 1×10^5 viable cells/ml. 100 μl of the suspension was placed in each well of the plate. […] Then add 50 μl of culture medium (RPMI 1640) only to 6 wells, 50 μl/well, among the 96 wells of one plate. It is called controlled. One well is filled with culture medium plus 5-FU. And another 50 μl of culture medium plus one of the stock solutions were added to each of the left 89 wells to allow cells to resume exponential growth.
In a further study, the cytotoxic activity profile of sodium meta-arsenite and arsenic acid sodium salt was investigated in different panels containing twelve (12) human cancer cell lines from eight (8) kinds of human cancers. The cancer cell samples were prepared as described in 1-1-B. Propidium iodide fluorescence assay method for this test was modified as the follows.

RXF 944LX = assay: Dose finding study in human renal cancer model RXF 944LX in nude mice (i.p. days 0, 7, 14); settings: for BW loss % (day) / Drug-related deaths / Rating / SGD (specific growth delay) / T/C %: days 0, 7, 14
Excerpt: In a dose finding study, the potential anticancer activity of sodium meta-arsenite and arsenic acid sodium salt versus arsenic trioxide was examined in the human renal cancer model, RXF 944LX.
Cancer fragments (1-2 mm in diameter), obtained from xenografts in serial passage in nude mice, were implanted subcutaneously (S.C.) in a flank of male NRMI nude mice (one fragment per mouse). Mice with appropriate cancer volumes (5-7 mm in diameter) were randomly distributed to treatment and control groups (4 mice/group). The start of treatment was day 0. Cancer volume and body weights were measured at least twice per week.
1) Sodium meta-arsenite (3, 10, 30 mg/kg/day), 2) Arsenic acid sodium salt (3, 10, 30 mg/kg/day) and 3) Arsenic trioxide (3, 10, 30 mg/kg/day) were administered intraperitoneally (i.p.) once daily on days 0, 7 and 14.
Stock solution of sodium meta-arsenite and arsenic acid sodium salt (3 mg/ml) were prepared in 5% (w/v) dextrose solution, respectively, to minimize acute arsenic toxicity. For arsenic trioxide, 9 mg of arsenic trioxide was dissolved in 1M NaOH (75 μl) followed by mixing with sterile aqua injectabilia (2175 μl) and sterile 20% (w/v) dextrose in water (500 μl). Further dilution to the desired concentration was done with a 5% dextrose solution to give a final concentration of 3 mg/ml.
The cancer volume of each animal was determined by two-dimensional measurement using calipers. The volume was calculated according to the formula: (a×b^2)×0.5; wherein a and b represent two perpendicular diameters in which a (length) is the larger diameter and b (width) the smaller diameter.
Relative cancer volumes (RCV) were calculated for each individual cancer by dividing the cancer volume on day X by the cancer volume on day 0 multiplied by 100%. The cancer volume of a treatment group was expressed as the median RCV of all mice of the group. Median RCV values were used for drawing growth curves and treatment evaluation. Optimal cancer growth inhibition at a particular day within the treatment period was calculated from the median RCV values of the treated (T) versus the controlled (C) group multiplied by 100%. A T/C value<50% was considered as anti-cancer activity.

[3] = Maximum tolerated dose assessment after daily oral gavages for 14 days in the rat; type: in vivo, Wistar rats; settings: for Findings / Findings (mortality): rat; for MTD (or LD10 value): rats, oral once daily 14 days, calculated
Procedure: The objective of this oral toxicity study was to establish a MTD after repeated administration of sodium meta-arsenite to rats.
Ampoules of sodium meta-arsenite (dissolved in 10% (w/v) glucose in water) in concentrations of 1.2, 2.2, 3.8, 7.0 and 12.6 mg/ml were stored in a refrigerator in the dark. Based on the previous study, the following doses were selected: 6, 11, 19, and 35 and 63 mg/kg/day. Each dose was administered daily by oral gavages to groups of 4 male and 4 female Wistar rats for 14 days, followed by a 14-day recovery period.
Clinical signs were evaluated daily, and body weights were recorded twice weekly. Scheduled termination was performed on day 29 (after 14 days of recovery). Macroscopic examination was performed on all animals.

[4] = panel of 41 human cancer cell lines
[5] = panel of 12 human cancer cell lines, 4 days
[6] = 10 mg/kg i.p., listed as sodium meta-arsenite

## O=[As][O-].[Na+] [Sodium meta-arsenite, sodium meta-arsenite]
[1]; 0.01 μg/ml and 0.001 μg/ml
  activity in panel of 41: showed no activity
[1]; 0.1 μg/ml
  cancer cell lines that responded, out of forty one (41): 16
[1]; 1 μg/ml, more than 70% growth inhibition
  cancer cell lines that responded, percent of 41: 80%
[1]; 10 μg/ml
  cancer cell lines in which active, percent of 41: 100%
[1]; breast (mammary) cancer cell lines
  selectivity (individual IC70<½ mean IC70), fraction of cell lines: ¾
[1]; conclusion of in vitro data
  fold more potent than arsenic trioxide: at least 10 fold
[1]; leukemia cell lines
  selectivity (individual IC70<½ mean IC70), fraction of cell lines: ¾
[1]; melanoma cell lines
  selectivity (individual IC70<½ mean IC70), fraction of cell lines: 4/7
[1]; [4]
  Mean IC50: 0.129 µg/mL
  Mean IC70: 0.329 μg/ml and 2.53 μM
  Mean IC90: 1.691 µg/mL
[1]; panel of 41 human cancer cell lines, listed as sodium meta-arsenite
  Mean IC70: 0.329 μg/ml and 2.53 μM
[1]; read-out: Mean IC50, panel of 41 human cancer cell lines
  IC50: 0.99 µM
[1]; read-out: Mean IC90, panel of 41 human cancer cell lines
  IC90: 13 µM
[2]; 1 μg/ml
  human cancer cell lines in which active, percent of 12: 33%
[2]; dose level 10 μg/ml
  human cancer cell lines in which active, percent of 12: 100%
[2]; dose level 100
  human cancer cell lines in which active, percent of 12: 100%
[2]; dose level lower than 1 μg/ml
  cytotoxic activity in panel of 12: did not display any cytotoxic activity at all
[2]; in μg/ml
  times more potent than arsenic acid sodium salt: over 20 times
[2]; on a molar basis
  times more potent than arsenic acid sodium salt: approximately 10 times
[2]; [5]
  Mean IC50: 0.9 µg/mL
  Mean IC70: 2.0 μg/ml and 15 μM
  Mean IC90: 6.8 µg/mL
[2]; read-out: Mean IC50, panel of 12 human cancer cell lines, 4 days
  IC50: 7 µM
[2]; read-out: Mean IC90, panel of 12 human cancer cell lines, 4 days
  IC90: 52 µM
RXF 944LX; 3 mg/kg i.p.
  BW loss % (day): +6.8 (21) %
  Drug-related deaths: 0/4
  Rating: + (+T/C < 50)
  SGD (specific growth delay): 0.4
  T/C %: 19%
RXF 944LX; 10 mg/kg i.p.
  BW loss % (day): +8.7 (21) %
  Drug-related deaths: 0/4
  Rating: − (−T/C ≧ 50%)
  SGD (specific growth delay): −0.1
  T/C %: 51%
RXF 944LX; [6]
  BW loss % (day): no lethality or body weight loss was observed
  Drug-related deaths: no lethality or body weight loss was observed
RXF 944LX; 30 mg/kg i.p.
  Drug-related deaths: 4/4
RXF 944LX; 30 mg/kg i.p., listed as sodium meta-arsenite
  Drug-related deaths: died within a few days after the first injection
RXF 944LX; i.p. once daily on days 0, 7 and 14, RXF 944LX bearing nude mice
  Maximum Tolerated Dose (MTD): 10 mg/kg/day
[3]; 6 mg/kg/day oral gavage 14 days
  Findings: No findings were noted
[3]; 11 mg/kg/day oral gavage 14 days
  Findings: Hunched posture was noted in one male from day 7-13 of treatment, diarrhea was observed for one male on day 6
[3]; 19 mg/kg/day oral gavage 14 days
  Findings: Hunched posture (day 6-14 of treatment) was noted in 2 males
[3]; 35 mg/kg/day oral gavage 14 days
  Findings (mortality): One male was found dead on day 13 of treatment, all females died between days 3 to 6
[3]; 63 mg/kg/day oral gavage 14 days
  Findings (mortality): All animals died on days 2 to 5
[3]; females
  MTD (or LD10 value): 25 mg/kg/day
[3]; males
  MTD (or LD10 value): 33 mg/kg/day
